Read-outs that look alike come from different tables or passages of the source.
How the values were obtained:
[1] = Plasma concentration determination test after oral administration; format: in vivo; details: male beagle dogs, gelatin capsule, 20 mg/kg in terms of free form, hypochlorhydria conditions, three dogs
Protocol: The Compound (1) in free form (type II crystal), the type III crystal of Compound (1) with one equivalent of succinic acid, and the type I crystal of Compound (1) with one equivalent of sorbic acid obtained in the examples were tested for plasma concentrations in male beagle dogs after oral administration under hypochlorhydria conditions.
In order to select three male beagle dogs for the test, plasma concentrations were determined in five male beagle dogs under hypochlorhydria conditions after administration in a solution form and administration in a capsule-filled form. Three dogs with larger differences in AUClast (area under the plasma concentration-time curve from 0 hours after administration to the point at which the final concentration can be calculated by the linear trapezoidal method before Tmax and by the log-trapezoidal method after Tmax) and Cmax (maximum plasma concentration) between the administration in the solution form and the administration in the capsule-filled form were selected. Subsequently, tests were conducted to determine plasma concentrations in them after oral administration of the Compound (1) in free form (type II crystal), the type III crystal of Compound (1) with one equivalent of succinic acid, and the type I crystal of Compound (1) with one equivalent of sorbic acid in capsule-filled forms. The following procedures were employed for the preparation of a liquid dosage, capsule filling, and animal experiments.
Compound (1) in free form was dissolved in a 20% HP-β-CD solution containing 0.1N hydrochloric acid to prepare a solution of 20 mg/5 mL. Compound (1) in free form (type II crystal), the type III crystal of Compound (1) with one equivalent of succinic acid, and the type I crystal of Compound (1) with one equivalent of sorbic acid were each filled into a gelatin capsule at 20 mg/kg in terms of the molecular weight of Compound (1) (free form).
The male beagle dogs selected for the study were fasted starting between 11:00 a.m. to 12:00 p.m. on the day before Compound (1) was administered and fed after blood was collected 8 hours after the administration of the compound. The dogs were not allowed to drink water from 30 minutes before to 2 hours after the administration of the compound, but were allowed to drink freely at other time.
Intravenous administration of atropine (atropine sulfate injection 0.5 mg “Fuso”) at a dose of 0.02 mg/kg was followed by intramuscular administration of pentagastrin at a dose of 0.01 mg/kg 30 minutes prior to the administration of the compound. Thirty minutes after the administration of atropine, the dogs were orally force-fed a capsule filled with the compound, encouraged to self-swallow the capsule with 5 mL of distilled water, and further orally force-fed 50 mL of distilled water using a catheter. Alternatively, the compound dissolved in liquid dosage was administered orally via a catheter at a dose of 20 mg/5 mL/kg, and the catheter was immediately rinsed with 10 mL of distilled water.
Pentagastrin was again intramuscularly administered at 0.01 mg/kg 15 minutes and 1 hour after the administration of the compound.
Before and after (0.25, 0.5, 1, 2, 4, 6, 8, and 24 hours after) the administration, the person in charge of collecting blood held the dog's forelimb to distend the blood vessel using a clothespin or the like. Then, the blood collection site was disinfected with alcohol cotton, and about 0.2 mL of blood was collected using a heparinized syringe and needle. After the blood was drawn, the puncture site was pressed with a cotton pad to adequately stop bleeding. The collected blood samples were ice-cooled, and plasma was isolated by centrifugation as soon as possible. The isolated plasma was immediately frozen on dry ice and then stored frozen in a freezer set at −80° C. […]

[2] = Solid stability test (4 weeks of storage at 80° C., closed system; HPLC); format: physicochemical; details: for Chemical purity after 4 weeks of storage at 80° C. / Solid stability (result in words): 80° C. (closed system), 4 weeks; for Chemical purity after 4 weeks of storage at 80° C.: glass bottle; for Chemical purity after 4 weeks of storage at 80° C. / Chemical purity before storage: HPLC; for Solid stability (result in words): related substances by HPLC; for Change (chemical purity): after 4 weeks at 80° C. versus before storage; for Chemical purity before storage: UV 220
Protocol: The solid stability of the type II crystal of Compound (1) in free form, the type III crystal of Compound (1) in free form, the type VII crystal of Compound (1) in free form, and the type VIII crystal of Compound (1) in free form obtained in the examples, reference example, and comparative example were evaluated after 4 weeks of storage by the following procedure. • Storage conditions: 80° C. (closed system) (HIFLEX (high-temperature storage chamber manufactured by ETAC)) • Storage period: 4 weeks • Storage volume: Approximately 30 mg • Storage container: Glass bottle
Changes in the mass of the related substances (the amounts of detected substances other than Compound (1)) were analyzed by HPLC according to the following method. Approximately 8 mg of each sample was weighed and dissolved in I mL of a chloroform-methanol mixture (1:1 v/v). Fifty μL of this solution was measured and diluted with 950 μL of an acetonitrile-water mixture (7:3), and 5 μL of the resulting solution was accurately measured and used as the sample for the analysis.
The mass of the related substances in the sample solution was determined by HPLC analysis. The instrument, including data processing, was handled in accordance with the method and procedure indicated for each instrument. • Column: InertSustainSwift C18 (2.1×50 mm, 1.9 μm) manufactured by GL Sciences • UV detection: […] • Column temperature: 40° C. • Flow rate: 0.3 mL/min • Sample cooler: 10° C. • Sample concentration: 0.1 mg/mL • Mobile phase A: 10 mmol/L phosphate buffer (pH 6.8)/acetonitrile (95:5) mixture • Mobile phase B: Acetonitrile • The gradients are shown in Table 4.
The solid stability of the type III crystal of Compound (1) with succinic acid, the type I crystal of Compound (1) with citric acid, the type IV crystal of Compound (1) with citric acid, the type I crystal of Compound (1) with sorbic acid, and the type I crystal of Compound (1) with phosphoric acid obtained in the examples, reference example, and comparative examples were evaluated after 4 weeks of storage. The evaluation method, storage, and measurement conditions were as described in Test Example 1.

[3] = Dynamic vapor sorption (DVS) test; format: physicochemical; details: 25° C.; for Hygroscopicity (result in words): 5 to 95% RH; for Weight increase under 95% relative humidity: 95% RH
Protocol: Vapor sorption tests were performed using the type II crystal of Compound (1) in free form, the type III crystal of Compound (1) in free form, the type VII crystal of Compound (1) in free form, and the type VIII crystal of Compound (1) in free form obtained in the examples, reference example, and comparative example.
Vapor sorption tests were conducted under the following conditions.
Approximately 10 mg of the sample was filled into a specialized quartz holder to continuously measure and record the weight of the sample at each humidity was under the following conditions. The instrument, including data processing, was handled in accordance with the method and procedure indicated for each instrument. • Instrument: VTI-SA+(manufactured by TA Instruments) • Drying temperature: 60° C. • Heating rate: 1° C./min • Equilibration of drying: Confirmation of no more than 0.01 wt % decrease in 5 minutes within a period not exceeding 300 minutes • Measurement temperature: 25° C. • Equilibration of humidification: Confirmation of no more than 0.01 wt % increase in 5 minutes within a period not exceeding 120 minutes • Relative humidity program: Increase from 5 to 95% RH in increments of 5% RH, and decrease from 95% to 5% RH in increments of 5% RH. • Changes in the weight over the range of the measurement conditions obtained in these tests are shown in FIGS. 9 through 12.
Vapor sorption tests were performed using the type III crystal of Compound (1) with succinic acid, the type I crystal of Compound (1) with citric acid, the type IV crystal of Compound (1) with citric acid, the type I crystal of Compound (1) with sorbic acid, and the type I crystal of Compound (1) with phosphoric acid obtained in the examples, reference example, and comparative examples.
Vapor sorption tests were conducted under the same conditions as in Test Example 2.

[4] = male, beagle, dog, plasma, po, 20 mg/kg

AUC(0-t) [1, 4] [µM·h]	Cmax [1, 4] [µM]	tmax ([1]; male, beagle, dog, plasma, po, 20 mg/kg, read-out: tmax) [h]	Chemical purity after 4 weeks of storage at 80° C. [2] [%]	Change (chemical purity) [2]	Chemical purity before storage [2] [%]	AUClast [1] [µM·h]	Cmax [1] [µM]	tmax [1] [h]	Hygroscopicity (result in words) [3]	Weight increase under 95% relative humidity [3] [%]	SMILES	Solid stability (result in words) [2]
13 ± 4	1.26 ± 0.09	4	–	–	–	–	–	–	–	–	C#Cc1c(-c2cnc3ccccc3c2)c2c(N)ncnc2n1C12CCC(NC(=O)c3cnc(C)cn3)(CC1)C2 [N-(4-(4-amino-6-ethynyl-5-(quinolin-3-yl)-7H-pyrrolo[2,3-d]pyrimidin-7-yl)bicyclo[2.2.1]heptan-1-yl)-5-methylpyrazine-2-carboxamide]	–
–	–	–	99.72	−0.02%	99.74	18.1 ± 13.1	1.68 ± 0.88	6.0 ± 2.0	hardly hygroscopic	0.26	C#Cc1c(-c2cnc3ccccc3c2)c2c(N)ncnc2n1C12CCC(NC(=O)c3cnc(C)cn3)(CC1)C2 [Type I crystal of Compound (1) with sorbic acid] [N-(4-(4-amino-6-ethynyl-5-(quinolin-3-yl)-7H-pyrrolo[2,3-d]pyrimidin-7-yl)bicyclo[2.2.1]heptan-1-yl)-5-methylpyrazine-2-carboxamide]	extremely stable crystals with almost no increase in the related substances
–	–	–	99.63	+0.01%	99.62	25.1 ± 8.4	2.24 ± 0.75	5.3 ± 1.2	hardly hygroscopic	0.28	C#Cc1c(-c2cnc3ccccc3c2)c2c(N)ncnc2n1C12CCC(NC(=O)c3cnc(C)cn3)(CC1)C2 [Type III crystal of Compound (1) with succinic acid] [N-(4-(4-amino-6-ethynyl-5-(quinolin-3-yl)-7H-pyrrolo[2,3-d]pyrimidin-7-yl)bicyclo[2.2.1]heptan-1-yl)-5-methylpyrazine-2-carboxamide]	extremely stable crystals with almost no increase in the related substances
